Consider 1 compound from patent US6197495A, “Methods using the staphylococcus aureus glycyl tRNA synthetase crystalline structure” (SmithKline Beecham Corporation, priority 1998, dated 2001).

Assay [1] deals with T1, Staphylococcus aureus glycyl tRNA synthetase (GRS), SEQ ID NO:1 (Staphylococcus aureus, UniProt P99129).
T1 construct: purified enzyme or crude lysate; homodimer
T1 sequence (P99129 1-463): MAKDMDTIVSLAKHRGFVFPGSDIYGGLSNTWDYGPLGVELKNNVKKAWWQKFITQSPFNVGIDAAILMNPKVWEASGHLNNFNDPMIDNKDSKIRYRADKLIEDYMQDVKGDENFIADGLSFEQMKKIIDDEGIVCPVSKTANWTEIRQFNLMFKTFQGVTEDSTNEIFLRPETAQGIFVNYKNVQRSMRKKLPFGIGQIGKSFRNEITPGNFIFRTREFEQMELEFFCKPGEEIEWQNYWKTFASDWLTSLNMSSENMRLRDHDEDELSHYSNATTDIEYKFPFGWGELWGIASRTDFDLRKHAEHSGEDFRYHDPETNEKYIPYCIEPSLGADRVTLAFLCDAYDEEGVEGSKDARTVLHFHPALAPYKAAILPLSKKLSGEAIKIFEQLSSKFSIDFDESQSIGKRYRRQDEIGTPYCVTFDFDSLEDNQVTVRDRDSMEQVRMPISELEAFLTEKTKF
As to the kind of experiment: Stopped-flow tryptophan fluorescence measurement of inhibitor binding to GRS. The text has this: (§1) Glycylsulfmoyladenosine is an analogue of the Gly-AMP reaction intermediate and inhibits GRS catalytic activity as measured by any of the techniques described in the examples below. Estimates of the potency of inhibition are obtained by performing enzyme assays in the presence of a range of inhibitor concentrations, and fitting the effect of inhibitor concentration on enzyme velocity to a four parameter logistic function that allows calculation of an IC50 (the inhibitor concentration at which GRS activity is reduced by half). […] Binding of glycylsulfamoyladenosine to GRS can also be measured directly using stopped-flow fluorescence techniques because enzyme:inhibitor binary complex has around 5% higher tryptophan fluorescence than the free enzyme. Experiments of this type yield the following elementary rate constants for inhibitor binding; kon =1.1×10^6 s^-1.M^-1, koff =2.9s ^-1 .
(1) Effects of ligand binding upon enzyme intrinsic fluorescence (e.g. of tryptophan). Binding of either natural ligands or inhibitors may result in enzyme conformational changes which alter enzyme fluorescence. Using stopped-flow fluorescence equipment, this can be used to define the microscopic rate constants that describe binding. Alternatively, steady-state fluorescence titration methods can yield the overall dissociation constant for binding in the same way that these are accessed through enzyme inhibition experiments.

Assay [2] has as its target T1, Staphylococcus aureus glycyl tRNA synthetase (GRS), SEQ ID NO:1. In words: Aminoacylation assay of GRS catalytic activity in the presence of a range of inhibitor concentrations. Conditions: S. aureus GRS; four parameter logistic fit; tRNA acylation with radiolabelled glycine, 37° C.; read-out: IC50 (the inhibitor concentration at which GRS activity is reduced by half). It counts as biochemical.
Description: as §1
Assays were performed either using purified S. aureus GRS overexpressed in E. coli, or using crude cell lysate from E. coli overexpressing GRS. The latter contained around 10% of total protein as GRS. Enzyme was stored at -70° C. in 50 mM Tris-HCl buffer (pH 7.8), 10 mM MgCl2 and 10 mM B-mercaptoethanol after flash freezing in liquid N2. […]
The assay procedure was as follows. […] The filters were dried at 70° C. for 1 hour and the levels of radioactivity measured by scintillation counting (Packard Topcount). […]

Structures are written as SMILES.

For `NCC(=O)NS(=O)(=O)OC[C@H]1O[C@@H](n2cnc3c(N)ncnc32)[C@H](O)[C@@H]1O` [glycylsulfamoyladenosine, 5'-O-Glycylsulfamoyladenosine], in assay [1], the off-rate (koff) (usually the rate constant with which the complex falls apart) is 2.9 s⁻¹ and the kon (commonly the second-order rate constant of association) turned out to be 1.1e+06 M⁻¹ s⁻¹. Moreover, in assay [1] (estimate from the ratio of koff and kon), the Kd (as a rule, the concentration at which binding is half-saturated) was 2600 nM. Also, the IC50 in assay [2] is about 2400 nM.
